Data taken from the supplement of paper PMC11451515.

Test system: NOMO1
Test: cell viability relative to DMSO control; higher = less cytotoxic
Settings: 48 h
How it was run: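 Viability is a per-plate percentage relative to DMSO wells, with cell-free wells as background. CellTiter-Glo One luminescence was read after 48 h at 37°C on 1536-well plates (5 μl) of NOMO1 or SEM (500 cells/well) or P12-Ichikawa (1000 cells/well) leukemia cells. The cells had been adapted for at least four passages in each medium and pin-dosed with library compounds in DMSO from 47 μM to 0.79 nM in 11 threefold steps.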

[1] = HPLM + 10% dialyzed FBS, 0.000781 µM
[2] = HPLM + 10% dialyzed FBS, 0.00234 µM
[3] = HPLM + 10% dialyzed FBS, 0.00702 µM
[4] = HPLM + 10% dialyzed FBS, 0.0211 µM
[5] = HPLM + 10% dialyzed FBS, 0.0632 µM
[6] = HPLM + 10% dialyzed FBS, 0.19 µM
[7] = HPLM + 10% dialyzed FBS, 0.569 µM
[8] = HPLM + 10% dialyzed FBS, 1.71 µM
[9] = HPLM + 10% dialyzed FBS, 5.12 µM
[10] = HPLM + 10% dialyzed FBS, 15.4 µM
[11] = HPLM + 10% dialyzed FBS, 46.1 µM
[12] = RPMI 5 mM glucose + 10% FBS, 0.000781 µM
[13] = RPMI 5 mM glucose + 10% FBS, 0.00234 µM
[14] = RPMI 5 mM glucose + 10% FBS, 0.00702 µM
[15] = RPMI 5 mM glucose + 10% FBS, 0.0211 µM
[16] = RPMI 5 mM glucose + 10% FBS, 0.0632 µM
[17] = RPMI 5 mM glucose + 10% FBS, 0.19 µM
[18] = RPMI 5 mM glucose + 10% FBS, 0.569 µM
[19] = RPMI 5 mM glucose + 10% FBS, 1.71 µM
[20] = RPMI 5 mM glucose + 10% FBS, 5.12 µM
[21] = RPMI 5 mM glucose + 10% FBS, 15.4 µM
[22] = RPMI 5 mM glucose + 10% FBS, 46.1 µM
[23] = RPMI 5 mM glucose + 10% dialyzed FBS, 0.000781 µM
[24] = RPMI 5 mM glucose + 10% dialyzed FBS, 0.00234 µM
[25] = RPMI 5 mM glucose + 10% dialyzed FBS, 0.00702 µM
[26] = RPMI 5 mM glucose + 10% dialyzed FBS, 0.0211 µM
[27] = RPMI 5 mM glucose + 10% dialyzed FBS, 0.0632 µM
[28] = RPMI 5 mM glucose + 10% dialyzed FBS, 0.19 µM
[29] = RPMI 5 mM glucose + 10% dialyzed FBS, 0.569 µM
[30] = RPMI 5 mM glucose + 10% dialyzed FBS, 1.71 µM
[31] = RPMI 5 mM glucose + 10% dialyzed FBS, 5.12 µM
[32] = RPMI 5 mM glucose + 10% dialyzed FBS, 15.4 µM
[33] = RPMI 5 mM glucose + 10% dialyzed FBS, 46.1 µM

Structure (SMILES)	cell viability [1]	cell viability [2]	cell viability [3]	cell viability [4]	cell viability [5]	cell viability [6]	cell viability [7]	cell viability [8]	cell viability [9]	cell viability [10]	cell viability [11]	cell viability [12]	cell viability [13]	cell viability [14]	cell viability [15]	cell viability [16]	cell viability [17]	cell viability [18]	cell viability [19]	cell viability [20]	cell viability [21]	cell viability [22]	cell viability [23]	cell viability [24]	cell viability [25]	cell viability [26]	cell viability [27]	cell viability [28]	cell viability [29]	cell viability [30]	cell viability [31]	cell viability [32]	cell viability [33]
Clc1ccccc1C(c1ccccc1)(c1ccccc1)n1ccnc1	120%	115%	125%	123%	116%	114%	123%	105%	108%	101%	78.6%	103%	122%	114%	122%	111%	110%	114%	103%	95%	92.7%	69.1%	119%	114%	119%	110%	116%	117%	124%	104%	113%	111%	80.3%
CS[C@H]1SC[C@@H]2C(=O)N(C)[C@H](C(C)C)C(=O)OC[C@H](NC(=O)c3cnc4ccccc4n3)C(=O)N[C@H](C)C(=O)N(C)[C@H]1C(=O)N(C)[C@H](C(C)C)C(=O)OC[C@H](NC(=O)c1cnc3ccccc3n1)C(=O)N[C@H](C)C(=O)N2C	90.5%	92.4%	81%	34%	7.25%	7.68%	7.01%	6.88%	6.12%	5.83%	3.83%	86.1%	83%	92.4%	44.5%	5.63%	5.77%	5.98%	5.95%	5.48%	4.23%	4.39%	92.6%	81.1%	83.2%	49.8%	5.73%	5.24%	5.79%	5.79%	5.29%	4%	3.33%
C[C@@H](N)C1CC[C@@H](CC1)C(=O)NC2=CC=NC=C2 (stereo partly drawn)	98.8%	114%	117%	126%	123%	136%	128%	132%	119%	113%	100%	114%	97.3%	114%	106%	101%	120%	122%	104%	123%	93.5%	93.1%	113%	105%	110%	91%	105%	116%	115%	113%	113%	94.1%	90%
CCOC(=O)[C@@H](N)CCC(=O)N[C@@H](CSCc1ccccc1)C(=O)N[C@@H](C(=O)OCC)c1ccccc1	–	–	–	–	–	–	–	–	–	–	–	–	–	–	–	–	–	–	–	–	–	–	128%	116%	123%	130%	133%	136%	121%	133%	137%	139%	98.9%
CC(C)(C)C1=CC(=C(NC(=O)C/2=C/NC3=C(C=CC=C3)C2=O)C=C1O)C(C)(C)C	–	–	–	–	–	–	–	–	–	–	–	120%	108%	118%	128%	136%	124%	121%	116%	114%	111%	103%	–	–	–	–	–	–	–	–	–	–	–
CCCCCCCCCCCC/1=C(O)/C(=O)/C=C(O)\C1=O	112%	116%	142%	127%	154%	151%	51.1%	39.4%	40.9%	35.5%	28.6%	–	–	–	–	–	–	–	–	–	–	–	–	–	–	–	–	–	–	–	–	–	–
Oc1ccc([C@@H]2Oc3ccc(O)cc3[C@@H]3CCC[C@@H]32)cc1	92.1%	93.1%	95.1%	102%	98%	89.3%	90.5%	94.2%	79.3%	62%	31.8%	93.3%	105%	97.5%	88.1%	87.3%	100%	99.9%	89.7%	81.8%	77%	28.8%	93.8%	92.1%	97.7%	90.7%	90.8%	94.1%	90.7%	87.4%	83.2%	63.7%	25.6%
NCCc1ccc(O)c(O)c1	118%	124%	123%	119%	131%	112%	131%	125%	104%	27.5%	7.83%	120%	112%	115%	127%	121%	124%	113%	110%	110%	54.3%	14%	–	–	–	–	–	–	–	–	–	–	–
N#Cc1ccc(NC(=O)Nc2ccccc2Br)c2nn[nH]c12	–	–	–	–	–	–	–	–	–	–	–	101%	122%	102%	107%	117%	119%	122%	114%	107%	120%	119%	94.1%	106%	106%	105%	101%	113%	123%	109%	105%	101%	115%
CCOCC(O)COc1ccc(NC(=O)CC[S+](C)C)cc1 (stereo not drawn)	91.1%	84.9%	106%	98.4%	93.1%	92.4%	110%	107%	97%	107%	98.5%	77.9%	87.1%	86.7%	86.7%	87.3%	82.1%	89.7%	80.8%	91%	94.3%	84.2%	82.1%	81.8%	78.1%	96.5%	90.6%	90.7%	86.3%	84.4%	95.3%	80.1%	85.9%
CN1CCC(CC1)=C2C3=C(C=CC=C3)\C=C/C4=C2C=CC=C4	98.6%	118%	113%	130%	133%	141%	147%	133%	121%	124%	93.4%	–	–	–	–	–	–	–	–	–	–	–	–	–	–	–	–	–	–	–	–	–	–
NC(CO)C(=O)NNCc1ccc(O)c(O)c1O (stereo not drawn)	96.1%	104%	106%	93.5%	107%	107%	91.6%	88.1%	90.6%	89%	77.2%	85.6%	101%	96.3%	95.9%	94.4%	94.1%	89.4%	85%	84.3%	83.7%	82.9%	89.4%	102%	107%	90.8%	98.8%	102%	91.9%	90%	96%	92.7%	82.6%
C[C@H](NCc1ccc(OCc2cccc(F)c2)cc1)C(N)=O	87.6%	125%	121%	113%	116%	116%	124%	133%	97.7%	95.1%	18.4%	110%	109%	106%	108%	106%	117%	122%	111%	113%	104%	50.3%	110%	114%	125%	110%	107%	123%	111%	116%	99.7%	97.4%	62.8%
Cn1cnc([N+](=O)[O-])c1Sc1ncnc2nc[nH]c12	79.8%	79.6%	107%	99.1%	109%	93.9%	114%	89.9%	6.49%	6.93%	7.54%	79.6%	87.5%	91.3%	96.6%	85.1%	95.6%	82.8%	73.1%	57.4%	6.27%	5.14%	88.9%	96.7%	93.3%	90%	98.6%	92.2%	90%	77.9%	48.6%	6.5%	6.03%
Cc1ccc(/C=N/NC(=O)c2ccccc2Oc2ccccc2)o1	102%	100%	104%	97.7%	101%	102%	104%	91.3%	98%	81.5%	69.6%	102%	96.4%	97.2%	88.7%	86.7%	91.2%	88%	80.4%	83.5%	83.3%	80.9%	98.9%	96.3%	95.1%	89.4%	113%	101%	95.6%	96.3%	85.9%	96.9%	86.3%
C[N]1C=C(C=N1)C2=CC=C3N=CC\4=C(N(C(=O)\C=C4)C5=CC6=C(CCN6C(=O)C=C)C=C5)C3=C2	–	–	–	–	–	–	–	–	–	–	–	100%	104%	108%	95.2%	102%	109%	95.7%	88.8%	69.3%	13.5%	9.25%	105%	108%	109%	119%	97.2%	107%	96%	90.6%	47.4%	6.23%	5.9%
N=C(N)NC(=N)N1CCOCC1	102%	84.7%	106%	103%	106%	111%	111%	103%	103%	89.6%	87.1%	95.2%	93.1%	115%	101%	111%	106%	102%	97.1%	98.7%	84.4%	87.4%	96.4%	93.3%	89.8%	88.8%	106%	104%	101%	87.2%	87.9%	86%	89.7%
Oc1c(Cl)cc(Cl)c2cccnc12	102%	113%	115%	93.6%	97.4%	92.6%	113%	91.4%	96.2%	111%	81.6%	91.7%	69.2%	105%	94.3%	92.6%	98.4%	116%	90.6%	84.8%	91.6%	62.6%	93.1%	90.8%	108%	97.7%	103%	94.3%	121%	101%	101%	91.7%	56.5%
